Measured values: PubChem BioAssay (NCI)
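Tested at 5 concentrations; 48 h exposure; 96-well plates; endpoints linearly interpolated, else capped at highest concentration. The concentration for 50% growth inhibition is given as GI50. At the TGI there is no net growth.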 Starred links: 1 amine or outer side, 2 acyl side, 3 side chain; linkers in the order of their positions; H or OH if unused. Positions of bridges follow the written chain, without caps; N, C: chain ends. Non-standard residues stand in square brackets, D forms with d. Residues, ends and D or L forms follow the SMILES beside them. Chains are numbered I, II in the order given. Actinocin(1to9) = Cc1c2oc3c(C)ccc(C(=O)[*:2])c3nc-2c(C(=O)[*:1])c(N)c1=O; NMeV = CN[CH](C(=O)O)C(C)C; Sar = CNCC(=O)O

What was measured:
Assay in all cases: growth of human tumour cells (NCI), 48 h
A498 renal = test system: A498 renal
BT-549 breast = test system: BT-549 breast
ACHN renal = test system: ACHN renal
DU-145 prostate = test system: DU-145 prostate
HCC-2998 colon = test system: HCC-2998 colon
KM20L2 colon = test system: KM20L2 colon
M19-MEL melanoma = test system: M19-MEL melanoma
DMS 114 small cell lung = test system: DMS 114 small cell lung
LXFL 529 NSCLC = test system: LXFL 529 NSCLC
SNB-78 CNS = test system: SNB-78 CNS
DMS 273 small cell lung = test system: DMS 273 small cell lung
HOP-18 NSCLC = test system: HOP-18 NSCLC
DLD-1 colon = test system: DLD-1 colon
XF 498 CNS = test system: XF 498 CNS
RXF-631 renal = test system: RXF-631 renal
SN12K1 renal = test system: SN12K1 renal

Compound | TGI (A498 renal) | TGI (BT-549 breast) | TGI (ACHN renal) | TGI (DU-145 prostate) | TGI (HCC-2998 colon) | further results
CCOC(=O)C(/C(=N/S(=O)(=O)c1cc(C)c(Cl)cc1[S-])[n+]1ccc(N(C)C)cc1)=C(/O)c1ccc([N+](=O)[O-])cc1 | 60.4 µM | 92.7 µM | 71.6 µM | > 100 µM |  | 
CC(C)(C)OC(=O)n1c2ccccc2c2c(=O)nc(N3CCCCC3)sc21 | > 100 µM | > 100 µM | > 100 µM | > 100 µM |  | 
O=C(O[C@@H](/C=C/c1ccccc1)P1(=O)N(Cc2ccccc2)[C@H]2CCCC[C@@H]2N1Cc1ccccc1)c1ccccc1 | 8.43 µM | > 100 µM | 6.91 µM | > 100 µM | 18.2 µM | 
O=c1[nH]c(Nc2ccc(Cl)c(C(F)(F)F)c2)nc2nc[nH]c12 | 60.9 µM | > 100 µM | > 100 µM | > 100 µM | 57.4 µM | 
OC(c1ccccc1)(c1ccccc1)c1nccc2ccccc12 |  | 37.2 µM | > 100 µM | > 100 µM |  | 
Cc1c(N2C(=O)/C(=C/c3ccc(Cl)cc3)N=C2c2ccccc2)c(=O)n(-c2ccccc2)n1C |  | > 100 µM | 60.5 µM | > 100 µM |  | 
Nc1ncnc2c1sc1nc3ccccc3n12 | > 100 µM | > 100 µM | > 100 µM | > 100 µM | > 100 µM | 
Cc1coc2c1C[C@@]1(C)[C@H](CCC[C@@H]1C)[C@H]2O |  |  | 78.3 µM | 56.3 µM | > 100 µM | 
N#CC12Cc3cc4c(cc3-c3cccc(c31)CCN2C(=O)c1ccccc1)OCO4 (centres undefined) | > 100 µM |  | > 100 µM |  | > 100 µM | TGI (KM20L2 colon): > 100 µM; TGI (M19-MEL melanoma): > 100 µM; TGI (DMS 114 small cell lung): > 100 µM; TGI (LXFL 529 NSCLC): > 100 µM; TGI (SNB-78 CNS): > 100 µM; TGI (DMS 273 small cell lung): > 100 µM; TGI (HOP-18 NSCLC): > 100 µM; TGI (DLD-1 colon): > 100 µM; TGI (XF 498 CNS): > 100 µM
c1ccc(-c2nnn3c2NC2=C(CCCC2)C3c2ccccc2)cc1 (centres undefined) |  |  | 3.09 µM | 33.3 µM |  | 
COc1ccc(C(=O)C2=NON3OC23C(=O)c2ccc(OC)cc2)cc1 (centres undefined) | 18.2 µM |  | 31.3 µM |  | 32.8 µM | TGI (KM20L2 colon): 35.5 µM; TGI (M19-MEL melanoma): 32.8 µM; TGI (DMS 114 small cell lung): 11.1 µM; TGI (LXFL 529 NSCLC): 6.68 µM; TGI (SNB-78 CNS): 42.3 µM; TGI (RXF-631 renal): 31.8 µM; TGI (DMS 273 small cell lung): 36.4 µM; TGI (HOP-18 NSCLC): 33.7 µM; TGI (DLD-1 colon): 21.5 µM; TGI (XF 498 CNS): 23.9 µM
COc1cc2oc(=O)ccc2cc1C(=O)CC(C)C | > 100 µM | > 100 µM | > 100 µM | > 100 µM | > 100 µM | 
Cn1cnc([N+](=O)[O-])c1Sc1nc(N)nc2c1ncn2C1OC(CO)C(O)C1O (centres undefined) |  | > 100 µM | > 100 µM | 66.4 µM | 15.3 µM | TGI (KM20L2 colon): 28.8 µM; TGI (M19-MEL melanoma): > 100 µM; TGI (DMS 114 small cell lung): > 100 µM; TGI (LXFL 529 NSCLC): > 100 µM; TGI (SNB-78 CNS): > 100 µM; TGI (DMS 273 small cell lung): > 100 µM; TGI (HOP-18 NSCLC): > 100 µM; TGI (DLD-1 colon): > 100 µM; TGI (XF 498 CNS): > 100 µM
CN(C)c1ccc(C=Nc2ccc(-c3nc4ccccc4[nH]3)cc2)cc1 | > 100 µM | 88.8 µM | > 100 µM | > 100 µM |  | 
CCC(C)C1NC(=O)C(NC(=O)c2c3nc4c(C(=O)NC5C(=O)NC(C(C)CC)C(=O)N6CCCC6C(=O)N(C)CC(=O)N(C)C(C(C)C)C(=O)OC5C)ccc(C)c4oc-3c(C)c(=O)c2N)C(C)OC(=O)C(C(C)C)N(C)C(=O)CN(C)C(=O)C2CCCN2C1=O (centres undefined) (I: TIP[Sar][NMeV] / II: TIP[Sar][NMeV]; ester I:1-I:C, II:1-II:C; linker I:N-II:N via Actinocin(1to9); configuration not given here) | 0.0629 µM | 0.58 µM |  |  | 0.0364 µM | 
Cn1c(=O)[nH]c2nncnc2c1=O | 475 µM |  |  |  | > 442 µM | TGI (KM20L2 colon): > 306 µM; TGI (M19-MEL melanoma): 115 µM; TGI (DMS 114 small cell lung): 345 µM; TGI (SNB-78 CNS): > 625 µM; TGI (DMS 273 small cell lung): 106 µM; TGI (HOP-18 NSCLC): 61.1 µM; TGI (DLD-1 colon): > 625 µM; TGI (XF 498 CNS): 245 µM; TGI (SN12K1 renal): > 625 µM
Cc1ccccc1N=Nc1c(O)c(S(=O)(=O)O)cc2cc(S(=O)(=O)O)ccc12 | > 100 µM | > 100 µM | > 100 µM | > 100 µM | > 100 µM | 
Clc1ccccc1/C=c1\nc(-c2ccccc2)n2c1nc1ccccc12 | > 100 µM | 50 µM | > 100 µM | > 100 µM |  | 
CC(=O)OC1CC[C@@]2(C)C(=CC[C@@H]3[C@@H]2CC[C@]2(C)Nc4nn(S(C)(=O)=O)cc4C[C@@H]32)C1 (some centres undefined) | > 100 µM | 45 µM |  | > 100 µM | > 100 µM | 
CC(C)(C)OC(=O)NC(CCCCNC(=O)OCc1ccccc1)C(=O)NCCNc1ccc(NCCNC(=O)C(CCCCNC(=O)OCc2ccccc2)NC(=O)OC(C)(C)C)c2c1C(=O)c1ccccc1C2=O (centres undefined) | > 100 µM | > 100 µM | > 100 µM | > 100 µM | > 100 µM | 
O=C(CSc1nc2ccc([N+](=O)[O-])cc2s1)c1ccc2ccccc2c1 | > 100 µM | > 100 µM | > 100 µM | > 100 µM | > 100 µM | 
OCc1cn(C(c2ccccc2)(c2ccccc2)c2ccccc2)cn1 |  |  | > 100 µM | > 100 µM | > 100 µM | 
O=C(O)c1ccc(C(=O)c2ccccc2C(=O)O)cc1C(=O)O | > 100 µM | > 100 µM | > 100 µM | > 100 µM | > 100 µM | 
Nc1c(C(=O)O)nnc2cc(Cl)c(Cl)cc12 | > 100 µM | > 100 µM | > 100 µM | > 100 µM | > 100 µM | 
COc1nc2[nH]ccc2c(=O)[nH]1 | > 100 µM |  | > 100 µM |  | > 100 µM | TGI (KM20L2 colon): > 100 µM; TGI (DMS 114 small cell lung): > 100 µM; TGI (LXFL 529 NSCLC): > 100 µM; TGI (SNB-78 CNS): > 100 µM; TGI (RXF-631 renal): > 100 µM; TGI (HOP-18 NSCLC): > 100 µM; TGI (DLD-1 colon): > 100 µM
COCC1CCCN1c1ccc(C=N/C(C#N)=C(\N)C#N)cc1 (centres undefined) | > 100 µM | > 100 µM |  | > 100 µM | > 100 µM | GI50 (A498 renal): > 100 µM; GI50 (HCC-2998 colon): > 100 µM; GI50 (BT-549 breast): 98.9 µM; GI50 (DU-145 prostate): 6.25 µM
